Experimental data reported in patent US20040171544A1, “Trefoil domain-containing polypeptides and uses thereof” (priority 2001, published 2004).
Where no end group is shown, it is not given here.

Experiments:
IEC-6 cells = test: in vitro IEC-6 wounding/cell migration assay; format: cell-based; conditions: for relative activity (wound repair, IEC-6 cells across the wound border): 0.1-1.0 mg/ml dimer, 19 hours, serum-deprived media with or without hCGP 2 mg/ml
Protocol: Biological activity of recombinant trefoil peptide fragments was measured using an in vitro wound/migration assay as described by Dignass et al. (J. Clin. Invest. 94:376-383 (1994)). Briefly, primary intestinal epithelial, IEC-6 cells (at passage 17) were grown in sterile Dulbecco's Modified Eagle Medium (DMEM) supplemented with 5% FCS (v/v), 5 μg/μl insulin, and 10 mM penicillin/streptomycin/L-glutamine (PSG). Cells were grown to confluence in a humidified chamber at 37° C. and 5% CO2.
Prior to performing biopotency assays, the media was removed, washed 2× with 0.1% FCS/DMEM and serum-starved overnight in 0.1% FCS/DMEM at 37° C. and 5% CO2. Two simulated wounds per well were made by scoring the cells with a razor blade. The cells were then washed once with 0.1%FCS/DMEM. Samples of hITF15-73 and its fragments and isoforms were produced in Pichia pastoris and purified as described above. The TDCP mixture was then added to separate plates at a concentration of 100 μg per milliliter of 0.1% FCS/DMEM per fragment. A positive control using the known mitogen, transforming growth factor-β (TGF-β), was included at 20 ng/mL media and a negative control of just 0.1% FCS/DMEM were incorporated for later analysis. Cells were incubated for 24 hours at 37° C. At 24 hours post incubation, cells were washed with ice-cold PBS and fixed in cold MeOH. Each plate was then assayed for motility by counting the number of cells crossing the wound edge.
Biological activity was tested using the in vitro IEC-6 wounding/cell migration assay describe above with the following modifications. IEC-6 cells were cultured to confluence in 24-well multiwell plates and were wounded once with a pipette to yield a 4-5 mm×1 cm wound in each well. Cells were washed and maintained in serum-deprived media, with or without human colonic glycoprotein (hCGP; 2 mg/ml), in the presence of 0.1-1.0 mg/ml of one of the three recombinant hITF dimers identified above for 19 hours. Bovine serum albumin (0.1-1.0 mg/ml) was added instead of an hITF dimer. Wound repair was determined by counting the number of IEC-6 cells across the wound border using a 100× photomicrograph (inverted Nikon Diaphor TMS, Nikon N6006 camera).

[1] = isoelectric point (pI) of ITF fragments; format: physicochemical
Text: We have observed that production of trefoil peptides in Pichia pastoris leads to post-translational events which include proteolytic cleavage and dipeptide addition. […] Our studies have shown that longer fermentation times results in increased hITF21-72 yields. We also observed that the optimal yield of the ITF21-72 and ITF21-73 occurs at a pH of ˜5; whereas the optimal yield of the […] and […] occurs at pH 6.0-6.5. As the pI of ITF15-73 and ITF21-72 is 5.1 and 6.9 respectively, separation of the two products can be achieved by ion-exchange chromatography.

[2] = stated as well known; cited from earlier work

Molecule	relative activity (wound repair, IEC-6 cells across the wound border) (IEC-6 cells)	also measured
EA-hITF15-73 homodimer: dimer of EA-hITF15-73, 13547 Da (EAEEYVGLSANQCAVPAKDRVDCGYPHVTPKECNNRGCCFDSRIPGVPWCFKPLQEAECTF; also: homodimer; UniProt Q07654 22-80, looked up, fragment)	85.3%	
hITF15-73 homodimer: recombinant hITF15-73 dimer, 13146 Da (EEYVGLSANQCAVPAKDRVDCGYPHVTPKECNNRGCCFDSRIPGVPWCFKPLQEAECTF; cysteine pairing not given here; also: homodimer; UniProt Q07654 22-80, looked up, fragment)	100%	
hITF15-73/EA-hITF15-73 heterodimer: dimer of hITF15-73 and EA-hITF15-73, 13347 Da (EEYVGLSANQCAVPAKDRVDCGYPHVTPKECNNRGCCFDSRIPGVPWCFKPLQEAECTF; cysteine pairing not given here; also: heterodimer of hITF15-73 and EA-hITF15-73, one chain has N-terminal Glu-Ala extension; UniProt Q07654 22-80, looked up, fragment)	95.6%	
hITF15-73: recombinant trefoil peptide fragment, amino acid residues 15-73 of human intestinal trefoil factor, produced in Pichia pastoris (EEYVGLSANQCAVPAKDRVDCGYPHVTPKECNNRGCCFDSRIPGVPWCFKPLQEAECTF; UniProt Q07654 22-80, looked up, fragment)		increase in IEC-6 cells migrating over the wound edge, compared to BSA control (IEC-6 cells; 1 mg/ml, 19 hour incubation, versus 1 mg/ml BSA (FIG. 12)): ~3 fold; pI [1]: 5.1
hITF: human intestinal trefoil factor (hITF; also known as TFF3) (protein, listed as Homo sapiens) MLGLVLALLSSSSAEEYVGLSANQCAVPAKDRVDCGYPHVTPKECNNRGCCFDSRIPGVPWCFKPLQEAECTF		stability at stomach pH [2]: stable
